Data taken from PubChem BioAssay AID256 (DTP/NCI, 2004).
Values joined by “and” are separate entries in the source; they are usually repeats but may differ in a detail not shown here. Equal values may be shown once. Toxic doses and inconclusive results are not listed.

Tested on: CD2F1 mice, L1210 leukemia ip, survival T/C
Assay: NCI In Vivo Anticancer Drug Screen. Data for tumor model L1210 Leukemia (intraperitoneal) in CD2F1 (CDF1) mice
Conditions: higher = longer survival
In short: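 Each value reflects a quotient of treated over vehicle control outcomes in mice with a transplanted tumor.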

[1] = endpoint: mean survival time, dose: 100.0 mg/kg/injection, schedule: Q01DX009 (ip), vehicle: saline with Tween-80
[2] = endpoint: mean survival time, dose: 200.0 mg/kg/injection, schedule: Q01DX009 (ip), vehicle: saline with Tween-80
[3] = endpoint: mean survival time, dose: 400.0 mg/kg/injection, schedule: Q01DX009 (ip), vehicle: saline with Tween-80
[4] = endpoint: mean survival time, dose: 100.0 mg/kg/injection, schedule: Q01DX001 (ip), vehicle: saline with Tween-80
[5] = endpoint: mean survival time, dose: 200.0 mg/kg/injection, schedule: Q01DX001 (ip), vehicle: saline with Tween-80
[6] = endpoint: mean survival time, dose: 400.0 mg/kg/injection, schedule: Q01DX001 (ip), vehicle: saline with Tween-80
[7] = endpoint: mean survival time, dose: 12.5 mg/kg/injection, schedule: Q01DX001 (ip), vehicle: saline with Tween-80
[8] = endpoint: mean survival time, dose: 25.0 mg/kg/injection, schedule: Q01DX001 (ip), vehicle: saline with Tween-80

C1CCC(C2CCCC[N-]2)[N-]C1.CC([NH-])C(=O)O.[Cl][Pt] (centres undefined)
T/C (endpoint: median survival time, dose: 10.0 mg/kg/injection, schedule: Q04DX003 (ip), vehicle: saline): 107 % of control | T/C (endpoint: median survival time, dose: 20.0 mg/kg/injection, schedule: Q04DX003 (ip), vehicle: saline): 105 % of control | T/C (endpoint: median survival time, dose: 40.0 mg/kg/injection, schedule: Q04DX003 (ip), vehicle: saline): 110 % of control | T/C (endpoint: median survival time, dose: 80.0 mg/kg/injection, schedule: Q04DX003 (ip), vehicle: saline): 97 % of control and 104 % of control | T/C (endpoint: median survival time, dose: 160.0 mg/kg/injection, schedule: Q04DX003 (ip), vehicle: saline): 108 % of control | T/C (endpoint: median survival time, dose: 320.0 mg/kg/injection, schedule: Q04DX003 (ip), vehicle: saline): 96 % of control

CC(C)(C)c1ccc(OS(=O)(=O)c2cccc([N+](=O)[O-])c2)cc1
T/C [1]: 86 % of control | T/C [2]: 102 % of control | T/C [3]: 94 % of control

Cc1ccc(S(=O)(=O)Nc2ccccc2-c2nc3cc(Cl)ccc3c(=O)o2)cc1
T/C (endpoint: mean survival time, dose: 100.0 mg/kg/injection, schedule: Q04DX003 (ip), vehicle: saline with Tween-80): 87 % of control | T/C (endpoint: mean survival time, dose: 200.0 mg/kg/injection, schedule: Q04DX003 (ip), vehicle: saline with Tween-80): 98 % of control | T/C (endpoint: mean survival time, dose: 400.0 mg/kg/injection, schedule: Q04DX003 (ip), vehicle: saline with Tween-80): 98 % of control

CCCCOC(=O)c1ccc(NC(=O)NCCC)cc1
T/C (endpoint: mean survival time, dose: 100.0 mg/kg/injection, schedule: Q04DX003 (ip), vehicle: saline): 101 % of control | T/C (endpoint: mean survival time, dose: 200.0 mg/kg/injection, schedule: Q04DX003 (ip), vehicle: saline): 101 % of control | T/C (endpoint: mean survival time, dose: 400.0 mg/kg/injection, schedule: Q04DX003 (ip), vehicle: saline): 97 % of control

CCOC(=O)NC1CCc2cc(OC)c(OC)c(OC)c2-c2ccc(OC)c(=O)cc21 (centres undefined)
T/C (endpoint: median survival time, dose: 2.5 mg/kg/injection, schedule: Q01DX005 (ip), vehicle: Klucel (hydroxypropylcellulose) (HPC)): 171 % of control | T/C (endpoint: median survival time, dose: 3.0 mg/kg/injection, schedule: Q01DX005 (ip), vehicle: Klucel (hydroxypropylcellulose) (HPC)): 164 % of control | T/C (endpoint: median survival time, dose: 5.0 mg/kg/injection, schedule: Q01DX005 (ip), vehicle: Klucel (hydroxypropylcellulose) (HPC)): 179 % of control and 187 % of control | T/C (endpoint: median survival time, dose: 8.33 mg/kg/injection, schedule: Q01DX005 (ip), vehicle: Klucel (hydroxypropylcellulose) (HPC)): 107 % of control

Cc1cc(=O)c2c(=O)[nH][nH]c2[nH]1
T/C [1]: 98 % of control | T/C [2]: 104 % of control

O=C(Nc1ccc(C2=NCCCN2)cc1)c1ccc(NC(=O)c2ccc(C3=NCCCN3)cc2)cc1
T/C (endpoint: mean survival time, dose: 1.0 mg/kg/injection, schedule: Q01DX008 (iv), vehicle: other): 95 % of control | T/C (endpoint: mean survival time, dose: 2.0 mg/kg/injection, schedule: Q01DX008 (iv), vehicle: other): 107 % of control | T/C (endpoint: mean survival time, dose: 4.0 mg/kg/injection, schedule: Q01DX008 (iv), vehicle: other): 189 % of control

CC(=O)Oc1c[nH]c(=O)[nH]c1=O
T/C (endpoint: mean survival time, dose: 12.5 mg/kg/injection, schedule: Q01DX009 (ip), vehicle: distilled water + Tween-80): 97 % of control and 112 % of control | T/C (endpoint: mean survival time, dose: 25.0 mg/kg/injection, schedule: Q01DX009 (ip), vehicle: distilled water + Tween-80): 97 % of control and 98 % of control | T/C (endpoint: mean survival time, dose: 50.0 mg/kg/injection, schedule: Q01DX009 (ip), vehicle: distilled water + Tween-80): 102 % of control and 110 % of control | T/C (endpoint: mean survival time, dose: 100.0 mg/kg/injection, schedule: Q01DX009 (ip), vehicle: distilled water + Tween-80): 114 % of control and 105 % of control | T/C (endpoint: mean survival time, dose: 200.0 mg/kg/injection, schedule: Q01DX009 (ip), vehicle: distilled water + Tween-80): 114 % of control and 105 % of control | T/C (endpoint: mean survival time, dose: 400.0 mg/kg/injection, schedule: Q01DX009 (ip), vehicle: distilled water + Tween-80): 117 % of control and 124 % of control

C=C1C[C@@H](O)[C@H](O)[C@@]2(C)C[C@@H]3OC(=O)C(=C)[C@@H]3C[C@H]12
T/C [1]: 102 % of control

Nc1nc(Cl)nc2c1ncn2C1CC(O)C(CO)O1 (centres undefined)
T/C (endpoint: median survival time, dose: 1.56 mg/kg/injection, schedule: Q01DX009 (ip), vehicle: Klucel (hydroxypropylcellulose) (HPC)): 124 % of control | T/C (endpoint: median survival time, dose: 7.5 mg/kg/injection, schedule: Q03HX009 (ip), vehicle: saline): 172 % of control | T/C (endpoint: median survival time, dose: 7.5 mg/kg/injection, schedule: Q03HX009 (ip), vehicle: suspension in saline): 107 % of control | T/C (endpoint: median survival time, dose: 10.0 mg/kg/injection, schedule: Q03HX024 (ip), vehicle: saline): 735 % of control | T/C (endpoint: median survival time, dose: 12.5 mg/kg/injection, schedule: Q01DX009 (ip), vehicle: Klucel (hydroxypropylcellulose) (HPC)): 180 % of control | T/C (endpoint: median survival time, dose: 15.0 mg/kg/injection, schedule: Q03HX009 (ip), vehicle: saline): 168 % of control | T/C (endpoint: median survival time, dose: 15.0 mg/kg/injection, schedule: Q03HX009 (ip), vehicle: suspension in saline): 100 % of control | T/C (endpoint: median survival time, dose: 15.0 mg/kg/injection, schedule: Q03HX024 (ip), vehicle: saline): 345 % of control | T/C (endpoint: median survival time, dose: 20.0 mg/kg/injection, schedule: Q03HX024 (ip), vehicle: saline): 735 % of control | T/C (endpoint: median survival time, dose: 25.0 mg/kg/injection, schedule: Q01DX009 (ip), vehicle: Klucel (hydroxypropylcellulose) (HPC)): 192 % of control | T/C (endpoint: median survival time, dose: 30.0 mg/kg/injection, schedule: Q03HX009 (ip), vehicle: saline): 208 % of control | T/C (endpoint: median survival time, dose: 30.0 mg/kg/injection, schedule: Q03HX009 (ip), vehicle: suspension in saline): 109 % of control | T/C (endpoint: median survival time, dose: 60.0 mg/kg/injection, schedule: Q03HX009 (ip), vehicle: saline): 204 % of control | T/C (endpoint: median survival time, dose: 60.0 mg/kg/injection, schedule: Q03HX009 (ip), vehicle: suspension in saline): 109 % of control | T/C (endpoint: median survival time, dose: 120.0 mg/kg/injection, schedule: Q03HX009 (ip), vehicle: suspension in saline): 113 % of control

O=C1C=CC2OC(c3ccccc3)C(O)C2O1 (centres undefined)
T/C (endpoint: median survival time, dose: 3.12 mg/kg/injection, schedule: Q01DX005 (ip), vehicle: DMSO): 111 % of control | T/C (endpoint: median survival time, dose: 6.25 mg/kg/injection, schedule: Q01DX005 (ip), vehicle: DMSO): 101 % of control | T/C (endpoint: median survival time, dose: 12.5 mg/kg/injection, schedule: Q01DX005 (ip), vehicle: DMSO): 112 % of control | T/C (endpoint: median survival time, dose: 25.0 mg/kg/injection, schedule: Q01DX005 (ip), vehicle: DMSO): 115 % of control | T/C (endpoint: median survival time, dose: 50.0 mg/kg/injection, schedule: Q01DX005 (ip), vehicle: DMSO): 87 % of control

Fc1ccc(CC(F)F)cc1
T/C [4]: 107 % of control | T/C [5]: 98 % of control | T/C [6]: 103 % of control

Nc1ccc(S(=O)(=O)Nc2ccccc2O)cc1
T/C (endpoint: mean survival time, dose: 3.0 mg/kg/injection, schedule: Q01DX001 (ip), vehicle: saline with Tween-80): 103 % of control | T/C (endpoint: mean survival time, dose: 6.25 mg/kg/injection, schedule: Q01DX001 (ip), vehicle: saline with Tween-80): 103 % of control | T/C [7]: 103 % of control | T/C [8]: 102 % of control | T/C (endpoint: mean survival time, dose: 50.0 mg/kg/injection, schedule: Q01DX001 (ip), vehicle: saline with Tween-80): 102 % of control

COC(=O)CCS(=O)(=O)CCC(=O)OC
T/C (endpoint: mean survival time, dose: 100.0 mg/kg/injection, schedule: Q04DX003 (ip), vehicle: Klucel (hydroxypropylcellulose) (HPC)): 103 % of control | T/C (endpoint: mean survival time, dose: 200.0 mg/kg/injection, schedule: Q04DX003 (ip), vehicle: Klucel (hydroxypropylcellulose) (HPC)): 100 % of control | T/C (endpoint: mean survival time, dose: 400.0 mg/kg/injection, schedule: Q04DX003 (ip), vehicle: Klucel (hydroxypropylcellulose) (HPC)): 103 % of control

Cc1ccc([N+](=O)[O-])cc1NC(=O)Oc1ccc(Cl)cc1Cl
T/C (endpoint: mean survival time, dose: 50.0 mg/kg/injection, schedule: Q01DX009 (ip), vehicle: saline with Tween-80): 102 % of control | T/C [1]: 103 % of control

O=C(O)C(=O)O
T/C (endpoint: mean survival time, dose: 200.0 mg/kg/injection, schedule: Q01DX001 (ip), vehicle: saline): 92 % of control | T/C (endpoint: mean survival time, dose: 400.0 mg/kg/injection, schedule: Q01DX001 (ip), vehicle: saline): 97 % of control

O=C1C(Cl)=C(NCc2ccccc2Cl)C(=O)c2ccccc21
T/C [7]: 108 % of control | T/C [8]: 108 % of control

ICC(CI)(CI)CI
T/C [4]: 100 % of control | T/C [5]: 93 % of control | T/C [6]: 100 % of control

CCCCCCCCN(C)Cc1cc(C(C)(C)C)cc(-c2ccccc2)c1O
T/C [1]: 96 % of control | T/C [2]: 96 % of control | T/C [3]: 96 % of control

O=[P+](O)O[P+](=O)O.O=[P+](O)O[P+](=O)O.O=[P+](O)O[P+](=O)O.O=[P+](O)O[P+](=O)O.[Pt].[Pt]
T/C (endpoint: median survival time, dose: 3.12 mg/kg/injection, schedule: Q04DX003 (ip), vehicle: saline): 98 % of control | T/C (endpoint: median survival time, dose: 6.25 mg/kg/injection, schedule: Q04DX003 (ip), vehicle: saline): 98 % of control | T/C (endpoint: median survival time, dose: 12.5 mg/kg/injection, schedule: Q04DX003 (ip), vehicle: saline): 96 % of control | T/C (endpoint: median survival time, dose: 25.0 mg/kg/injection, schedule: Q04DX003 (ip), vehicle: saline): 98 % of control | T/C (endpoint: median survival time, dose: 50.0 mg/kg/injection, schedule: Q04DX003 (ip), vehicle: saline): 105 % of control
